Activity calls are given as the source filed them.
Key:
[1] = test system: Streptococcus sp. 'group A'; assay: Streptococcus pyogenes SK(-)GAS viability under kanamycin – luminescence, BacTiterGlo, confirmation, counter-screen for streptokinase expression inhibitor project, dose response (AID 1900); type: functional, organism-based
cells [2] = type: functional
[3] = Vero E6 cell cytotoxicity, dose response, cytotoxicity control for non-replicating M. tuberculosis project, secondary assay (AID 492998); type: functional, VeroE6; details: Vero C1008
Streptokinase A = target: T1, Streptokinase A (Streptococcus pyogenes serotype M1, UniProt P10520); assay: viability-normalized secreted streptokinase activity reduction – plasminogen activation absorbance, OD405, dose response (AID 1914); type: functional, Streptococcus pyogenes M1 GAS;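 note: secreted streptokinase activity via plasminogen activation per viability signal from cell pellet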
T1 sequence (P10520 whole entry): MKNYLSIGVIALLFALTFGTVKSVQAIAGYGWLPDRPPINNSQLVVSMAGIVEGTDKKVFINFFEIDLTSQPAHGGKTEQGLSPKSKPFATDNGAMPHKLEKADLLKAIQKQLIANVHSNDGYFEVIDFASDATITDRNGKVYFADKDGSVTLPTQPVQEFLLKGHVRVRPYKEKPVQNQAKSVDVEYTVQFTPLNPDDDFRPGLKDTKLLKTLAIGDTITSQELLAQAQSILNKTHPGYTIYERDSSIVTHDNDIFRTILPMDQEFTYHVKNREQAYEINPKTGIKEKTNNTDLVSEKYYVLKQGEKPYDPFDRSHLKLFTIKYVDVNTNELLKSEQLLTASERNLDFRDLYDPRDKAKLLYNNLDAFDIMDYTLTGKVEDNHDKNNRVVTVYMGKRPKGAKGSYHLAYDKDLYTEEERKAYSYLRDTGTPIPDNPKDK

Streptococcus = assay: GAS UMAA2166 growth inhibition – luminescence, BacTiterGlo, counter-screen for streptokinase expression inhibitor project, dose response (AID 1915); type: functional, organism-based;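 note: potency for reduction of bacterial viability or growth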
[4] = THP-1 cell cytotoxicity, dose response, cytotoxicity control for non-replicating M. tuberculosis project (AID 489025); type: functional
[5] = target: DNA dC->dU-editing enzyme APOBEC-3G (Homo sapiens, UniProt Q9HC16); assay: Dose Response confirmation of small molecule APOBEC3G DNA Deaminase Inhibitors via a fluorescence-based single-stranded DNA deaminase assay. [Related pubchem assays (depositor defined):AID493012, AID493028]; type: functional
[6] = target: DNA dC->dU-editing enzyme APOBEC-3A (Homo sapiens, UniProt P31941); assay: A3A deaminase inhibition for selectivity – biochemical, dose response (AID 504722); type: functional
[7] = HEK-293T viability loss after treatment – luminescence, T-cell screen hits, cytotoxicity control for TCR NF-kB inhibitor project, dose response (AID 489026); type: functional, cell-based;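 note: cells exposed to compound about 14 hours before the viability readout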
[8] = M. tuberculosis H37Rv growth inhibitors, H37Rv strain (AID 1626); type: functional
[9] = Trypanosoma cruzi growth suppression in host cells – NIH3T3 host cells, beta-gal luminescence, confirmation (AID 2044); type: functional, cell-based;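 note: intracellular parasites grown in NIH/3T3 mouse fibroblasts as host cells; luminescent beta-galactosidase reporter signal from transgenic T. cruzi replicating inside host cells; inhibitors lower the luminescence signal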
[10] = NIH3T3 cell viability loss – ATP luminescence, mouse fibroblasts, counter-screen, dose response (AID 2010); type: functional, cell-based;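 note: cells exposed to compound for about 90 hours before reading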
cells [11] = assay: cells
[12] = target: T2, Rac GTPase-activating protein 1 (Homo sapiens, UniProt Q9H0H5); assay: blockers of MgcRacGAP-driven Rac1 GTP hydrolysis – biochemical, ADP Hunter fluorescence, primary and confirmatory, confirmation (AID 624330); type: functional
T2 sequence (Q9H0H5 whole entry): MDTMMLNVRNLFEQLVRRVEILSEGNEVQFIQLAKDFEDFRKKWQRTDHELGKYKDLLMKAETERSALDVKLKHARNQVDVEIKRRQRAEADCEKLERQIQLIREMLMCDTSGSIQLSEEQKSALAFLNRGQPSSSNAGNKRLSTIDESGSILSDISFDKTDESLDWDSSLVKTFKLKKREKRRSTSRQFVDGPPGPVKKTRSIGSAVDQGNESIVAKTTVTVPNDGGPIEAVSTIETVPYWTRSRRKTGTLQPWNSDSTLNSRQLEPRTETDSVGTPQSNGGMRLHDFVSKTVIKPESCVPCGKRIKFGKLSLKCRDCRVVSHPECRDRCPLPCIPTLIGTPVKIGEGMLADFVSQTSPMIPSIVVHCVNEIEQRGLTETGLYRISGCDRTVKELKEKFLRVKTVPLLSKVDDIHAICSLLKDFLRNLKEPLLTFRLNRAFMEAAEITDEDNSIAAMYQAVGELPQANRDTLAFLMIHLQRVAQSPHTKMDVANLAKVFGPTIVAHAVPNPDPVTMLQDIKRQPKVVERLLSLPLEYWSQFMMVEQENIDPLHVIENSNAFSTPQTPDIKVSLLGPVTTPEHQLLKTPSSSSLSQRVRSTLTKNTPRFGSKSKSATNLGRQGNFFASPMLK

[13] = target: T3, Short transient receptor potential channel 4 (Mus musculus, UniProt Q9QUQ5); assay: block of DAMGO-driven TRPC4 calcium entry – cell-based, HEK293 TRPC4/mu-opioid, Fluo-4 calcium, dose response (AID 434942); type: functional;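 note: potency of inhibitors blocking the TRPC4 calcium response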
T3 sequence (Q9QUQ5 whole entry): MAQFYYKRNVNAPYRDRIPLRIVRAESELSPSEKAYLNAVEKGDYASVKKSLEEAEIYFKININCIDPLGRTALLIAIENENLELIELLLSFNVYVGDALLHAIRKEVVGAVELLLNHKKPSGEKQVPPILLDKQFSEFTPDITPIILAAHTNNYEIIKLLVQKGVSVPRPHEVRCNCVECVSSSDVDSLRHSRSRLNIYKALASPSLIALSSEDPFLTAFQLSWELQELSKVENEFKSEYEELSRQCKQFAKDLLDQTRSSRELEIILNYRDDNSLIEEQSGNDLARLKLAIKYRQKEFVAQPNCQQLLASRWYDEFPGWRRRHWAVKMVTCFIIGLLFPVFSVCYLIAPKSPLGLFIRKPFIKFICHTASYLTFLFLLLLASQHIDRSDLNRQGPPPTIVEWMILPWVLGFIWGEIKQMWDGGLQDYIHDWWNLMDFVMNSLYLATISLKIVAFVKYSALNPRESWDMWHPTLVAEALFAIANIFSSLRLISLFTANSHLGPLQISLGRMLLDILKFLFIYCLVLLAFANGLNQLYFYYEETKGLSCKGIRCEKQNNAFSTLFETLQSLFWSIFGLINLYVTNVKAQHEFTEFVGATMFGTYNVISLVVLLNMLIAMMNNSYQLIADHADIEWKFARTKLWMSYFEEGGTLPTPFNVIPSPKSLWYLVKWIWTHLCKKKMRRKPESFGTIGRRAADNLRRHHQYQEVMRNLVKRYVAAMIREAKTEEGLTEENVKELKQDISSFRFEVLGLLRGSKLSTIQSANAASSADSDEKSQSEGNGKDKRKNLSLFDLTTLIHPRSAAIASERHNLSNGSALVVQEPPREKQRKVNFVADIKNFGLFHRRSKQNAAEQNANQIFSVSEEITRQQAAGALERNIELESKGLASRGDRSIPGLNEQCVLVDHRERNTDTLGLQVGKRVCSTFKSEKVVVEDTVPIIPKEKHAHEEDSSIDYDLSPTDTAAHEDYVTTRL

SUMO-activating enzyme = SUMO-activating enzyme (Homo sapiens, UniProt Q9UBT2); assay: blockers of UBC9-mediated SUMO conjugation – biochemical, AlphaScreen, SUMOylation inhibitor project, confirmation (AID 2018); type: functional
CAAX prenyl protease 2 = target: T4, CAAX prenyl protease 2 (Saccharomyces cerevisiae S288c, UniProt Q03530); type: biochemical
T4 sequence (Q03530 whole entry): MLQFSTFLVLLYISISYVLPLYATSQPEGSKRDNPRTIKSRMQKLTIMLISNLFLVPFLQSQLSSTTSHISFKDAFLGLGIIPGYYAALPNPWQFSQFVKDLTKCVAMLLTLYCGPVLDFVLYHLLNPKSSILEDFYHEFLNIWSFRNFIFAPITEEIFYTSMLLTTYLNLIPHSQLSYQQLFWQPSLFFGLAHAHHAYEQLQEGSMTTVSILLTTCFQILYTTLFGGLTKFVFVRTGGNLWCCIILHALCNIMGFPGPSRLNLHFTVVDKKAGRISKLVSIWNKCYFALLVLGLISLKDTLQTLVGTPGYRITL

Trypsin = Trypsin (Sus scrofa, UniProt P00761); assay: trypsin protease activity blockade – biochemical, quenched peptide fluorescence, cherry-pick, selectivity assay for Rce1 protease inhibitor project, dose response (AID 488789)
Estrogen receptor = target: T5, Estrogen receptor (Homo sapiens, UniProt P03372);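 note: potency for inhibiting coactivator peptide recruitment to the receptor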
T5 sequence (P03372 whole entry): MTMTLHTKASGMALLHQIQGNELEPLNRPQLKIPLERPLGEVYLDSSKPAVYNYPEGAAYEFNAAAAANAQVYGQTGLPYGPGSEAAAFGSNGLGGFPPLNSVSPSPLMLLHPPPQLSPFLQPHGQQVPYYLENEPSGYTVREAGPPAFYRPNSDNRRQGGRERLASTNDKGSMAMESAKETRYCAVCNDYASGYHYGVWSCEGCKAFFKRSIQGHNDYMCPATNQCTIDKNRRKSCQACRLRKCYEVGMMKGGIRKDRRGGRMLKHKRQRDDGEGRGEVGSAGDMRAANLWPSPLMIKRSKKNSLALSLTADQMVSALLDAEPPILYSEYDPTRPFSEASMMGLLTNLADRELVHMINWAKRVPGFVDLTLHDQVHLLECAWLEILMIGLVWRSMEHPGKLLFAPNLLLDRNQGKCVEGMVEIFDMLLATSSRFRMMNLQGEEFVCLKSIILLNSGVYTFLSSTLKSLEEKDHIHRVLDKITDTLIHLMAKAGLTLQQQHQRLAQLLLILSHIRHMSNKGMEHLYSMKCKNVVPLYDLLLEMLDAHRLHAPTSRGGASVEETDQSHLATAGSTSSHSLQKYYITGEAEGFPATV

[14] = target: T6, Carboxy-terminal domain RNA polymerase II polypeptide A small phosphatase 1 (Homo sapiens, UniProt Q9GZU7); assay: CTDSP1 inhibitors, concentration-response, biochemical, absorbance readout, ultra-high-throughput screen actives (AID 540297); type: functional
T6 sequence (Q9GZU7 whole entry): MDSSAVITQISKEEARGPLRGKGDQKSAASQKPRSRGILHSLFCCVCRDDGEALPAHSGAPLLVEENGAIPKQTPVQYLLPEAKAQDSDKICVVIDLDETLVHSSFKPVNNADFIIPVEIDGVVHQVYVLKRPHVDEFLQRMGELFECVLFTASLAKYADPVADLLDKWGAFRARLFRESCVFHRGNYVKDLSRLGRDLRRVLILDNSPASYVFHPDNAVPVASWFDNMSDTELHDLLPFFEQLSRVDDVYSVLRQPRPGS

[15] = viability of uninfected HEp-2 cells – cell-based, HTS, cytotoxicity control for RSV inhibitor project, dose response (AID 2410); type: functional; details: human respiratory syncytial virus

Chain of DNA dC->dU-editing enzyme APOBEC-3A (P31941 whole entry): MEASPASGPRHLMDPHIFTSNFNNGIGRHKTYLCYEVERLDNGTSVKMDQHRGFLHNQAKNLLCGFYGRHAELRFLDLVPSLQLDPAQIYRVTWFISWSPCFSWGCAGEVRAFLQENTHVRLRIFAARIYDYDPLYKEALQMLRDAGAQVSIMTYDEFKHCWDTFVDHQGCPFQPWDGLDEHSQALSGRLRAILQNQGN
Chain of DNA dC->dU-editing enzyme APOBEC-3G (Q9HC16 whole entry): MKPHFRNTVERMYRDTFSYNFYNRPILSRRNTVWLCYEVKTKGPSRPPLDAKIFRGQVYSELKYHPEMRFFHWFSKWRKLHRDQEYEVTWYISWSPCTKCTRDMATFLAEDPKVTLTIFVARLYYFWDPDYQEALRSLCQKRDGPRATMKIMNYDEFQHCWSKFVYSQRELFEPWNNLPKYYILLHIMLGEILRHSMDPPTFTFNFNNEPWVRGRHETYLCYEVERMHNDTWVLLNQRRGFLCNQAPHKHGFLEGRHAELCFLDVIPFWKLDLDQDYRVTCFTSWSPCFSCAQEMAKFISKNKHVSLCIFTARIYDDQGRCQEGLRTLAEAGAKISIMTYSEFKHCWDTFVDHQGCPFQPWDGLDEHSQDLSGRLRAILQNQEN
Chain of Trypsin (P00761 whole entry): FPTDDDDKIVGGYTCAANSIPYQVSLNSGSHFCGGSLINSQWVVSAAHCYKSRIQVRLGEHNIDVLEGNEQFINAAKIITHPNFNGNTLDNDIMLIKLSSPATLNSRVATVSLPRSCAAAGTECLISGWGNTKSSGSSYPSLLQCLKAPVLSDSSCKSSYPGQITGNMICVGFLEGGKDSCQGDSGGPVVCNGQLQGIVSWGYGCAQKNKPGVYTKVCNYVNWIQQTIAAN
Chain of SUMO-activating enzyme (Q9UBE0 whole entry): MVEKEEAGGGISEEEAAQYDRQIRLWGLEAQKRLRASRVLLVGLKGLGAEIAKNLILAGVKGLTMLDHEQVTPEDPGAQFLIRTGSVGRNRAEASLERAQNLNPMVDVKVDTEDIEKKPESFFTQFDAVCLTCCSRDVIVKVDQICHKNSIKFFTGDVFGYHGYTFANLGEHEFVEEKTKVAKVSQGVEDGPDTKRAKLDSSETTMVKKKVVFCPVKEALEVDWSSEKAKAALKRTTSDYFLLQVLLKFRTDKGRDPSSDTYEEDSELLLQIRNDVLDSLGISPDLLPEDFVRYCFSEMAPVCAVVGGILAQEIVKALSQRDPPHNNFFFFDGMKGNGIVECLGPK
Chain of SUMO-activating enzyme (Q9UBT2 whole entry): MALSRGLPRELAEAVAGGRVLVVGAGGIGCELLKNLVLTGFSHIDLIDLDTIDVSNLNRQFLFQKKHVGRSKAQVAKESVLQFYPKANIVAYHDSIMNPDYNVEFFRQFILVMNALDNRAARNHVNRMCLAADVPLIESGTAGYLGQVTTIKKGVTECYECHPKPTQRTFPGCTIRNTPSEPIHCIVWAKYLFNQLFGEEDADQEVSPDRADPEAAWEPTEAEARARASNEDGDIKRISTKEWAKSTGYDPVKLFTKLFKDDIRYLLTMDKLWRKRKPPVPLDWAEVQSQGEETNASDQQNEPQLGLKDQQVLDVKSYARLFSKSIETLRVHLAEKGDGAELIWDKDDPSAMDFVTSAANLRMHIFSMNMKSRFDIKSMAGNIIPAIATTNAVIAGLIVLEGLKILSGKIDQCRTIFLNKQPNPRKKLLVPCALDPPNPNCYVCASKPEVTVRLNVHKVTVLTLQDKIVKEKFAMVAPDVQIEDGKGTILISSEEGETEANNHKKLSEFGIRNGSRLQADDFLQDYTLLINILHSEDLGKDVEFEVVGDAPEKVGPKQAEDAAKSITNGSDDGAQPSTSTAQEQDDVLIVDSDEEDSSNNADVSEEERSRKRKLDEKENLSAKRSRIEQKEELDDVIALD

Compound: Cc1ccc(CNC(=O)c2ccc([N+](=O)[O-])o2)cc1
- EC50 [1]: 2.42 µM (active)
- IC50 (cells [2]): 0.16 µM (active)
- CC50 [3]: 5.6 µM (active)
- EC50 (Streptokinase A): 8.63 µM (active)
- EC50 (Streptococcus): 32.1 µM (active)
- CC50 [4]: 25.5 µM (active)

Compound: Cc1cc(-c2nnc(S)n2-c2ccc(F)cc2)nn1C
- IC50 [5]: 16.2 µM (active)
- IC50 [6]: > 100 µM (inactive)

Compound: CCOc1ccc(S(=O)(=O)NCc2ccccn2)cc1NC(=O)c1ccccc1
- IC50 [7]: > 80 µM (inactive)

Compound: CCOc1ccc(NC2C=CS(=O)(=O)C2)cc1 (centres undefined)
- IC50 [8]: > 100 µM (active)

Compound: CCOC(=O)c1sc2c(c1C)c(=O)n(Cc1ccccc1)c(=O)n2CCN(C)C
- EC50 [9]: < 0.1 µM (active)
- EC50 [10]: > 60 µM (not active)
- EC50 (cells [11]): 0.062 µM (active)

Compound: Cc1cc(-c2nnc(S)n2/N=C/c2sccc2C)[nH]n1
- IC50 [5]: 2.44 µM (active)
- IC50 [12]: 74.9 µM (active)
- IC50 [6]: > 100 µM (inactive)

Compound: Cc1cc(O)nc(SCC(=O)C23CC4CC(CC(C4)C2)C3)c1C#N
- IC50 [8]: > 100 µM (active)

Compound: CC(OC(=O)CNC(=O)c1ccccc1F)C(=O)Nc1nc(-c2ccccc2)cs1 (centres undefined)
- EC50 [13]: 1.5 µM (active)

Compound: CCOc1cccc(CNCCO)c1OCc1ccc(Cl)cc1
- EC50 [13]: 1.88 µM (active)

Compound: COC(=O)C1=C(C)N(Cc2ccccc2)C(=S)N[C@H]1c1ccccc1
- EC50 [13]: 5.96 µM (active)

Compound: Sc1nnc(COc2ccccc2)n1/N=C/c1ccco1
- IC50 [5]: 3.38 µM (active)
- IC50 [6]: > 100 µM (inactive)

Compound: CC(NC(=O)OC(C)(C)C)C(=O)Oc1ccc2ccc(=O)oc2c1 (centres undefined)
- IC50 (SUMO-activating enzyme): > 100 µM (inactive)

Compound: CCOC(=O)c1ccccc1NS(=O)(=O)c1ccc(OCC)cc1
- IC50 [7]: > 80 µM (inactive)

Compound: Cc1c(Cc2ccccc2)c(=O)oc2c(C)c(OCC(=O)N3CCC(C(=O)O)CC3)ccc12
- AC50 (CAAX prenyl protease 2): 10.7 µM (active)
- AC50 (Trypsin): 9.51 µM (active)

Compound: C=CCn1c(-c2ccc([N+](=O)[O-])cc2)n[nH]c1=S
- IC50 [5]: 4.51 µM (active)
- IC50 [6]: > 100 µM (inactive)

Compound: O=C(CN1C(=O)C2C3CCC(C3)C2C1=O)Oc1ccc2ccccc2c1 (centres undefined)
- IC50 [8]: > 100 µM (active)

Compound: COc1ccc2sc(N(CCCN(C)C)C(=O)c3ccc(S(=O)(=O)N(C)C4CCCCC4)cc3)nc2c1
- EC50 [9]: < 0.1 µM (active)
- EC50 [10]: > 60 µM (not active)
- EC50 (cells [11]): 0.393 µM (active)

Compound: CC(C)(C)C1CCc2c(sc(NC(=O)CSc3nnc(-c4ccccc4)o3)c2C#N)C1 (centres undefined)
- IC50 [8]: > 100 µM (active)

Compound: COC(=O)Cc1ccc(NC(=O)c2ccc(Br)o2)cc1
- IC50 [8]: > 100 µM (active)

Compound: O=C(Nc1ccc2nn(-c3ccccc3)nc2c1)c1ccc(Br)o1
- IC50 (Estrogen receptor): > 50 µM (not active)
- IC50 [14]: 3.62 µM (active)

Compound: Clc1cccc(COn2c(-c3ccc(Cl)cc3Cl)nc3ncccc32)c1
- EC50 [13]: 5.96 µM (active)
- CC50 [15]: 14.4 µM (active)

Compound: COc1ccc(-c2nc(CC(=O)O)cs2)cc1OC
- AC50 (CAAX prenyl protease 2): 29.7 µM (active)
- AC50 (Trypsin): 6.53 µM (active)

Compound: CCN(CC)c1ccc(CN(C)CCc2ccc(OC)c(OC)c2)cc1
- EC50 [9]: < 0.1 µM (active)
- EC50 [10]: > 60 µM (not active)
- EC50 (cells [11]): < 0.004 µM (active)

Compound: Nc1c(C(=O)Nc2ccc(Br)cc2)sc2nc(-c3ccco3)ccc12
- IC50 (SUMO-activating enzyme): 22.8 µM (active)

Source: ChEMBL document CHEMBL1201862, “PubChem BioAssay data set” (2004)
